Assay results: patent US20030086928A1, “Compositions associated with complex formation and methods of use thereof” (priority 2000, published 2003)

Assays:
[1] = tested on: phospho (Ser133) CREB in D5 cells; experiment: Ser133 phosphorylation of CREB in D5 cells (Western blot / immunofluorescence with antiserum 5322); format: cell-based
Experimental: (§1) D5 cells were grown on glass coverslips and stimulated with forskolin and 3-isobutyl-1-methylxanthine (IBMX) or 12-O-tetradecanoyl phorbol acetate (TPA) for 10 minutes. The cells were methanol-fixed at […] for 5 min followed by three 5 min washes in PBS. Cells were blocked for 30 min with 3% BSA in PBS and donkey serum diluted 1:50. Primary antibodies were diluted in 3% BSA/PBS to 1:2000 for the phospho-CREB specific antibody 5322 or 1:100 (3 μg/ml) for the KID/KIX specific antibody. The cells were incubated with the primary antibodies for 1 hr at RT, followed by 3 washes with PBS and a 1 hr incubation with Biotin-SP-conjugated Donkey anti rabbit IgG diluted 1:200 in 3% BSA/PBS. After 3 washes in PBS, Texas Red conjugated Streptavidin was added at 1:200 dilution in 3% BSA/PBS. After one hour incubation, cells were washed 3 times in PBS and mounted in 90% glycerol/PBS containing 1 mg/ml phenylenediamine.
In addition to cAMP, other stimuli such as the phorbol ester TPA can promote Ser133 phosphorylation of CREB; yet these stimuli are unable to induce target gene activation via CBP, reflecting either a block in CREB:CBP complex formation or in the subsequent recruitment of the transcriptional apparatus. […]

[2] = tested on: somatostatin mRNA in D5 cells; experiment: Northern blot of somatostatin mRNA in D5 cells; format: cell-based, rat; details: 4 hours
Source text: In addition to cAMP, other stimuli such as the phorbol ester TPA can promote Ser133 phosphorylation of CREB; yet these stimuli are unable to induce target gene activation via CBP, reflecting either a block in CREB:CBP complex formation or in the subsequent recruitment of the transcriptional apparatus. To evaluate formation of CREB:CBP complexes in vivo, NIH 3T3 cells expressing chromosomal copies of the rat somatostatin gene, hereafter referred to as D5 cells (Montminy et al. (1986) J Neurosci 6:803-813) were used. […] Western blot assays of total CREB and phospho (Ser133) CREB (P-CREB) levels were performed in control (C) or treated D5 cells exposed to either forskolin (F) or TPA (T) for 30 minutes. Northern blot assays were then performed to detect somatostatin (SOM) and tubulin (TUB) mRNA levels in control D5 cells (C) and in D5 cells treated with forskolin (F) or TPA (T) for 4 hours.

[3] = tested on: T1, CREB:CBP complexes in D5 cells; experiment: Immunofluorescence of CREB:CBP complexes in D5 cells with αKK antiserum; format: cell-based; details: 10 minutes
T1 construct: endogenous in cells; host or cells: D5 cells (NIH 3T3 with rat somatostatin gene)
T1 sequence (Q01147 whole entry): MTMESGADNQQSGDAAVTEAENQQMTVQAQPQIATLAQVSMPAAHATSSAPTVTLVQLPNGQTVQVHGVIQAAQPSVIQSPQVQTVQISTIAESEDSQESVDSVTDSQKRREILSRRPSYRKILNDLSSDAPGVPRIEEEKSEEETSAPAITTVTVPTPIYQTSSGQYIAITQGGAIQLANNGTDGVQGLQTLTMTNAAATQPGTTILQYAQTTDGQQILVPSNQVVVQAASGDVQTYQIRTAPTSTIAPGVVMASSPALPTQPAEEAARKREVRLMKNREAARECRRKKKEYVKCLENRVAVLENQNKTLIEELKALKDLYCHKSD
T1 sequence (P45481 2-2441 limits assumed, further chain): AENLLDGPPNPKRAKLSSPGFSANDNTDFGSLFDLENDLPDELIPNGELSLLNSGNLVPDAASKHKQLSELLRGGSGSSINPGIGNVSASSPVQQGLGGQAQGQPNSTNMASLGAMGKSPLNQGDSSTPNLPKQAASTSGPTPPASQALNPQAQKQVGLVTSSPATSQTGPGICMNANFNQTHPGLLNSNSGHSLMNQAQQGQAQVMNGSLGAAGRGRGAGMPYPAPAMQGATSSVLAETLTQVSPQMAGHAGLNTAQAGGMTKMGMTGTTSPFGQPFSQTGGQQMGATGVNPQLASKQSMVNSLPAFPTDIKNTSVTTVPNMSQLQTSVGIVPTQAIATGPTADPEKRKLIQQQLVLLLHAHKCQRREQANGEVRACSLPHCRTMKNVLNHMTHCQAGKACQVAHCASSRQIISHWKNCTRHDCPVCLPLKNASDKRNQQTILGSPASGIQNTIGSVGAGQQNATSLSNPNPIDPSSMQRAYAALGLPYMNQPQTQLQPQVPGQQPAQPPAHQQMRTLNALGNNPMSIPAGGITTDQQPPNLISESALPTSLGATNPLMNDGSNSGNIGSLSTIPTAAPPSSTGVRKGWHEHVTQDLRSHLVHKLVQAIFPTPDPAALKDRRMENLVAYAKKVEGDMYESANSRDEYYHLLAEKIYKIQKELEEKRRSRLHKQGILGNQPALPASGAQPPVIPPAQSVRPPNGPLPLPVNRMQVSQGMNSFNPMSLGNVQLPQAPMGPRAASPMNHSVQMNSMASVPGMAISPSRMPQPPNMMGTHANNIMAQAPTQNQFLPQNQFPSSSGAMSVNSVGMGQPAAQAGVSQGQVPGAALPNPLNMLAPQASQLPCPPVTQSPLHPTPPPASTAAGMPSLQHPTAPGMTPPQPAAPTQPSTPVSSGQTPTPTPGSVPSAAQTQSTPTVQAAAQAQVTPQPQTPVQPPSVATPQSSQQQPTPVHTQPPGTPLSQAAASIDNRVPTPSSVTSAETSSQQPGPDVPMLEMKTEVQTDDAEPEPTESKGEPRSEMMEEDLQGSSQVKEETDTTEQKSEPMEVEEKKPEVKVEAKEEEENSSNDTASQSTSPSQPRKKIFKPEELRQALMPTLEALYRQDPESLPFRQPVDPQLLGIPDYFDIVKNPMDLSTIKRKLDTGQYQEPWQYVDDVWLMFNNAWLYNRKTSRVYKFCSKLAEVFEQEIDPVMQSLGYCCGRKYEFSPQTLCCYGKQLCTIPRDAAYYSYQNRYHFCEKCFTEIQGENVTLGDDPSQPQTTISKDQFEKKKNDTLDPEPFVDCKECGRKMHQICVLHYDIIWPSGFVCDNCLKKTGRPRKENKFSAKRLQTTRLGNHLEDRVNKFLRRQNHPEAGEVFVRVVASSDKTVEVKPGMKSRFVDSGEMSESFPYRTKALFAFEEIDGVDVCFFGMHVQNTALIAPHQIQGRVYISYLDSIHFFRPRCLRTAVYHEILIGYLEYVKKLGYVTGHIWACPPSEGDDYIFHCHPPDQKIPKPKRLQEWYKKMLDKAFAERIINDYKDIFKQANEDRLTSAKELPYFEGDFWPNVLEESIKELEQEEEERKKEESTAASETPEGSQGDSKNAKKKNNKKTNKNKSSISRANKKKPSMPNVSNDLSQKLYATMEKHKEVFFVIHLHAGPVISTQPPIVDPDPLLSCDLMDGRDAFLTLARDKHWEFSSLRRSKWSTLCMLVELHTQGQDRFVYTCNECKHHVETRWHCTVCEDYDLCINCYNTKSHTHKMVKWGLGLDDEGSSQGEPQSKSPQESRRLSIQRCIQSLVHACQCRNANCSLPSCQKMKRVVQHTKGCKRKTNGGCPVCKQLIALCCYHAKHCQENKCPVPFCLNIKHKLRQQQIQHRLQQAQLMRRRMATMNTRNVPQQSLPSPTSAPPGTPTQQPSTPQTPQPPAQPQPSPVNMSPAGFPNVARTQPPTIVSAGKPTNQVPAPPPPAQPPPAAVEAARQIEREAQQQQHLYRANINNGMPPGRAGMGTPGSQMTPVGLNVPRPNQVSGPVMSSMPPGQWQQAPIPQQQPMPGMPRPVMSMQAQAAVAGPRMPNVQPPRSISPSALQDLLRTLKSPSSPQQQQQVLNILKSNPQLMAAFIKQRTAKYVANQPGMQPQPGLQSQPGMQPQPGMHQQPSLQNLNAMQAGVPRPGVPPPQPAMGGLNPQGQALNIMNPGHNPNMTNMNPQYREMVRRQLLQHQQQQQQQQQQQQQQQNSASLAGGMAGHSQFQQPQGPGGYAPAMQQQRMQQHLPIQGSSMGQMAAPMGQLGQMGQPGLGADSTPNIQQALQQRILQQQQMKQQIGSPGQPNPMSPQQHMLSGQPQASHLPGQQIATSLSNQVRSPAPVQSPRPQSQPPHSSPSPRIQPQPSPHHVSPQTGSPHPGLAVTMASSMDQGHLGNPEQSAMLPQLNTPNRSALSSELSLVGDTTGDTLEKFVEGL
Experimental: as §1
D5 cells were then treated with forskolin or TPA for 10 minutes.

CCCCCCCCCCCCCC(=O)O[C@@H]1[C@@H](C)[C@@]2(O)[C@@H](C=C(CO)C[C@]3(O)C(=O)C(C)=C[C@@H]23)[C@@H]2C(C)(C)[C@]12OC(C)=O [TPA, 12-O-tetradecanoyl phorbol acetate]
accumulation of phospho (Ser133) CREB ([1]; 10 minutes, immunofluorescence): comparable levels of Ser133 phosphorylation | Ser133 phosphorylation of CREB ([1]; 30 minutes, Western blot with antiserum 5322): induced Ser133 phosphorylation of CREB with comparable stoichiometry to forskolin induction | somatostatin mRNA accumulation [2]: no discernible effect | CREB:CBP complex formation detected with αKK antiserum [3]: no CREB:CBP complexes were detected

C=C[C@@]1(C)CC(=O)[C@]2(O)[C@@]3(C)[C@@H](O)CCC(C)(C)[C@@H]3[C@H](O)[C@H](OC(C)=O)[C@@]2(C)O1 [forskolin]
somatostatin mRNA accumulation [2]: 5 fold
